pIC50: −log10 of the molar value. Counter-ions that a name gives are not always drawn.

Common to all, as to format: biochemical
The target of test [1] is T1, Human PDE4A3 (Homo sapiens, UniProt P27815).
T1 construct: His6 (N); FLAG (C); made in house; host or cells: insect cells (baculovirus, pFastBac)
Put plainly: PDE4A3 Scintillation Proximity Assay (SPA), inhibition of enzyme activity. Conditions: geometric mean of 2-7 determinations unless otherwise indicated (b: ≥8 determinations; c: single determination), 1 μM cAMP, 30 min at 25° C., read-out: Human PDE4A FL. The essentials:
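Human PDE4A3 (aa 2–825, His6/FLAG-tagged, insect-cell expressed) at 80 pM hydrolyses 1 μM cAMP including 20 nM 3H-cAMP, ~20% conversion. Buffer is 50 mM Tris pH 7.5, 1.3 mM MgCl2, 0.01% Brij. Incubated 30 min at 25 °C with inhibitor range, stopped with yttrium silicate SPA beads, read after 8 h settling.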
On the technique in general: SPA uses beads or plates that emit light when radiolabelled molecules are held near them.

The target of test [2] is T2, Human PDE4B1 (Homo sapiens, UniProt Q07343, S133E/S654A/S659A/S661A).
T2 construct: His6 (N); thrombin cleavage site (N); made in house; host or cells: insect cells (baculovirus, pFastBac)
T2 sequence (Q07343 122-736 S133E/S654A/S659A/S661A): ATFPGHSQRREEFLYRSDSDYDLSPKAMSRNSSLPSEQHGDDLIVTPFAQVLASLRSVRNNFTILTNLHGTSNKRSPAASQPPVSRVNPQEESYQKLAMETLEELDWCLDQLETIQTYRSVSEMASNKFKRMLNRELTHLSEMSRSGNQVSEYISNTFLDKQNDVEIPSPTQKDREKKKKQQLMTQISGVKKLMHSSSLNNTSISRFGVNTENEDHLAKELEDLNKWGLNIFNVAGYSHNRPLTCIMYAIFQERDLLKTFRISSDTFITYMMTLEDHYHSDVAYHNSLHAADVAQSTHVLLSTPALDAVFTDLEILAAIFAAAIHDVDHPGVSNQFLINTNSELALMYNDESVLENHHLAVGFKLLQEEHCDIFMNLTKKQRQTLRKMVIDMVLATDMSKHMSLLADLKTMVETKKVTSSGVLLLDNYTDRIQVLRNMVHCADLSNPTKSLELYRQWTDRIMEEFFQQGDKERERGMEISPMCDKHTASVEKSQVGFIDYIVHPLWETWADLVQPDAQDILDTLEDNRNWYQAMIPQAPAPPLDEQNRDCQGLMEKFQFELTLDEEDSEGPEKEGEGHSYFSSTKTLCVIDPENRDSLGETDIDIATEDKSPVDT
As to the kind of experiment: PDE4B1 Scintillation Proximity Assay (SPA), inhibition of enzyme activity. As to conditions: geometric mean of 2-7 determinations unless otherwise indicated (b: ≥8 determinations; c: single determination); 1 μM cAMP, 30 min at 25° C.; read-out: Human PDE4B FL; IC50. The essentials:
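His-tagged human PDE4B1 expressed in insect cells and purified by Ni-NTA and Source 15Q was assayed in 50 mM Tris pH 7.5, 1.3 mM MgCl2, 0.01% Brij. The substrate was 1 μM cAMP with ³H-cAMP tracer, at about 20% conversion, for 30 min at 25 °C. Yttrium silicate SPA beads stopped the reaction; counts were read after 8 h settling.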

Test [3] concerns the target T3, Human PDE4C1 (Homo sapiens, UniProt Q08493).
T3 construct: His6 (N); FLAG (C); made in house; host or cells: insect cells (baculovirus, pFastBac)
As to the kind of experiment: PDE4C1 Scintillation Proximity Assay (SPA), inhibition of enzyme activity. As to conditions: geometric mean of 2-7 determinations unless otherwise indicated (b: ≥8 determinations; c: single determination), 1 μM cAMP, 30 min at 25° C., read-out: Human PDE4C FL. The essentials:
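Human recombinant FLAG/His-purified PDE4C1 from insect cells at 40 pM, with 1 μM cAMP (3H-cAMP tracer) in Tris pH 7.5, 1.3 mM MgCl2, 0.01% Brij, ~20% substrate turnover. Incubation 30 min at 25° C with a range of inhibitor concentrations. Stopped with yttrium silicate SPA beads and read by scintillation after 8 h settling.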

Test [4] concerns the target T4, human PDE4D3 (Homo sapiens, UniProt Q08499).
T4 construct: His6 (C); made in house; host or cells: insect cells (baculovirus, pFastBac)
As to the kind of experiment: PDE4D3 Scintillation Proximity Assay (SPA), inhibition of enzyme activity. Conditions: geometric mean of 2-7 determinations unless otherwise indicated (b: ≥8 determinations; c: single determination); 1 μM cAMP, 30 min at 25° C.; read-out: Human PDE4D FL; IC50. The essentials: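 Recombinant enzyme from insect cells, Ni-NTA and Q Sepharose purified, used at 10 pM in 50 mM Tris pH 7.5, 1.3 mM MgCl2, 0.01% Brij. Substrate 1 μM cAMP with 3H-cAMP tracer, ~20% conversion, inhibitor range, 30 min at 25°C. Stopped with yttrium silicate SPA beads and scintillation read.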

T3 sequence (Q08493 2-712): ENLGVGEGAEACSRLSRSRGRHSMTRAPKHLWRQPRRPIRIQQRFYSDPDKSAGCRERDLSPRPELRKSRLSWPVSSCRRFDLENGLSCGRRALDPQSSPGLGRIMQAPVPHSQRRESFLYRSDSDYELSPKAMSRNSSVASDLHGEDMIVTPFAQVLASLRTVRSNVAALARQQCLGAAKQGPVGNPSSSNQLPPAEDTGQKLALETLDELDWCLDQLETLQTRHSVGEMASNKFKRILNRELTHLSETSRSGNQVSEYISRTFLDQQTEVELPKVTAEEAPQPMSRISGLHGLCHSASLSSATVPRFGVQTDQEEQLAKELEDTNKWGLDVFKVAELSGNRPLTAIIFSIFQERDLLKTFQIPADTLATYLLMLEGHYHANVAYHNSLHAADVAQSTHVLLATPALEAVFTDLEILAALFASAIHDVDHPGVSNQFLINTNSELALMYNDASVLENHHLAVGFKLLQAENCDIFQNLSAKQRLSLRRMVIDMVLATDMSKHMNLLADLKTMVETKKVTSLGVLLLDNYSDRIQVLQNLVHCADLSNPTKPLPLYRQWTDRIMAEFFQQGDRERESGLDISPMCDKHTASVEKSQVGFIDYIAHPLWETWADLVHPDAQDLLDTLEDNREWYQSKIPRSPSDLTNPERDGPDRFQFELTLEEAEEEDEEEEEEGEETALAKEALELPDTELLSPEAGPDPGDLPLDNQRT
T1 sequence (P27815 2-825 isoform P27815-6): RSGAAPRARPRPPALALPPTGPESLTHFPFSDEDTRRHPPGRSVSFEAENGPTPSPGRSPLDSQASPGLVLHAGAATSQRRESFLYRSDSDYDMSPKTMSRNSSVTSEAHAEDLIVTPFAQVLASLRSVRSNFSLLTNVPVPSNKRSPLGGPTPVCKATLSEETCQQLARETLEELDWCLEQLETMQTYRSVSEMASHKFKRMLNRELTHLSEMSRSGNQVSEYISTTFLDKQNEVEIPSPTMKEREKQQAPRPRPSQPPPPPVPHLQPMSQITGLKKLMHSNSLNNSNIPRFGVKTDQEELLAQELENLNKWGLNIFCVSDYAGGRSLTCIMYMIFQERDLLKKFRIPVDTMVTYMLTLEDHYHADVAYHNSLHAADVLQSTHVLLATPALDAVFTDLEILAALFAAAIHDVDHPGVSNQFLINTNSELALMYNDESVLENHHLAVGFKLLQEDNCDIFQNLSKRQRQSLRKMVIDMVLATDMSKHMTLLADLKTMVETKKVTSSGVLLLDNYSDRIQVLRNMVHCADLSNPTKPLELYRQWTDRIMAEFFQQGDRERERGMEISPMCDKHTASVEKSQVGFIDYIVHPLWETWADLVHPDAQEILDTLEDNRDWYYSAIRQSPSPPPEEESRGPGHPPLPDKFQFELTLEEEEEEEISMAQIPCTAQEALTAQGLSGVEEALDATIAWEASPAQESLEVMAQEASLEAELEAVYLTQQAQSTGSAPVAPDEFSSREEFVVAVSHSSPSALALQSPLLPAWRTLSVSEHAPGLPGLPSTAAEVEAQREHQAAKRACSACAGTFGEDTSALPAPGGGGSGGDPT
T4 sequence (Q08499 186-808): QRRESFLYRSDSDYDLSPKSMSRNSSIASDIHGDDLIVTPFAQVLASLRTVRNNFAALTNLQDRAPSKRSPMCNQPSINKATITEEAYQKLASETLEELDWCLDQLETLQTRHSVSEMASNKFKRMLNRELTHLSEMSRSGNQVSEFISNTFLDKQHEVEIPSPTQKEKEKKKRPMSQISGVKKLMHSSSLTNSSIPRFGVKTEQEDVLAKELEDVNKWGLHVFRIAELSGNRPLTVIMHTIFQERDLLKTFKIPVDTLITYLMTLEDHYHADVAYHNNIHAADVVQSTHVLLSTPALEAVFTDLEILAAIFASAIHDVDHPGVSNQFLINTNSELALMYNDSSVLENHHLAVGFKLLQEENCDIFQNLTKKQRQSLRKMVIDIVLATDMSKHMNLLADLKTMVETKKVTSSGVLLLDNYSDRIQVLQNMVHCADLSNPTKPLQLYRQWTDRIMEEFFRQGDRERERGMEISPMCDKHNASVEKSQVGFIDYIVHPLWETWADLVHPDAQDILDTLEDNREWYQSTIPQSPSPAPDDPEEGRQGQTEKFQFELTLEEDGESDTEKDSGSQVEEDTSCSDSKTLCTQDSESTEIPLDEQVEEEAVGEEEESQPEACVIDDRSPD

For `Cc1cc(C#N)c(F)cc1-c1c(C(=O)NC2CC2)nn2cccnc12` [Example 23, 3-(4-cyano-5-fluoro-2-methylphenyl)-N-cyclopropylpyrazolo[1,5-a]pyrimidine-2-carboxamide], the pIC50 was 8.07 in test [1], 7.59 in test [2], 7.40 in test [3] and 6.35 in test [4].
Consider `CC(C)NC(=O)c1nn2cccnc2c1-c1ccc(Cl)cc1` [Example 26, 3-(4-chlorophenyl)-N-(propan-2-yl)pyrazolo[1,5-a]pyrimidine-2-carboxamide], for which the pIC50 in test [1] is 6.39; in test [2] it was 6.31; in test [3], 6.20; in test [4], 5.31.
For the compound `O=C(NC1CC1)c1nn2cc(F)cnc2c1-c1ccc2ocnc2c1` [Example 65, 3-(1,3-benzoxazol-5-yl)-N-cyclopropyl-6-fluoropyrazolo[1,5-a]pyrimidine-2-carboxamide], the pIC50 in test [1] was 7.24; in test [2], 7.23; in test [3], 6.89; in test [4], 5.94.
The matching figures for `O=C(NC1CC1)c1nn2cc(F)cnc2c1-c1ccc(Cl)c(F)c1` [Example 59, 3-(4-chloro-3-fluorophenyl)-N-cyclopropyl-6-fluoropyrazolo[1,5-a]pyrimidine-2-carboxamide]: 8.92, 8.31, 8.11 and 6.80.
Turning to `O=C(NC1CC1)c1nn2cccnc2c1-c1cc(F)c(Cl)cc1F` [Example 47, 3-(4-chloro-2,5-difluorophenyl)-N-cyclopropylpyrazolo[1,5-a]pyrimidine-2-carboxamide], the pIC50 is 8.33 in test [1], 7.61 in test [2], 7.86 in test [3] and 6.09 in test [4].
Take `CCNC(=O)c1nn2cccnc2c1-c1ccc(Cl)cc1C` [Example 18, 3-(4-chloro-2-methylphenyl)-N-ethylpyrazolo[1,5-a]pyrimidine-2-carboxamide]: the pIC50 in test [1] is 7.40; in test [2], 6.82; in test [3], 7.01; in test [4], 5.16.
For the compound `Cc1cc(Cl)c(F)cc1-c1c(C(=O)NC2CC2)nn2cc(F)cnc12` [Example 64, 3-(4-chloro-5-fluoro-2-methylphenyl)-N-cyclopropyl-6-fluoropyrazolo[1,5-a]pyrimidine-2-carboxamide], the pIC50 in test [1] is 9.00; in test [2], 8.70; in test [3] it was 8.35; in test [4], 7.28.
In the case of `Cc1cc(Cl)c(F)cc1-c1c(C(=O)N2CCC2)nn2cccnc12` [Example 61, azetidin-1-yl[3-(4-chloro-5-fluoro-2-methylphenyl)pyrazolo[1,5-a]pyrimidin-2-yl]methanone], the pIC50 was 8.70 in test [1], 8.10 in test [2], 7.70 in test [3] and 7.01 in test [4].
As for `N#Cc1c(F)cc(-c2c(C(=O)N3CCC3)nn3cccnc23)cc1F` [Example 62, 4-[2-(azetidin-1-ylcarbonyl)pyrazolo[1,5-a]pyrimidin-3-yl]-2,6-difluorobenzonitrile], the pIC50 in test [1] was 8.36; in test [2], 7.76; in test [3] it was 7.42; in test [4], 6.62.
Regarding `O=C(NC1CC1)c1nn2cccnc2c1-c1ccc2ocnc2c1` [Example 60, 3-(1,3-benzoxazol-5-yl)-N-cyclopropylpyrazolo[1,5-a]pyrimidine-2-carboxamide], the pIC50 was 7.33 in test [1], 6.65 in test [2], 6.19 in test [3] and < 4.81 in test [4].
Taken in the same sequence, the figures for `O=C(c1nn2cccnc2c1-c1cc(F)c(Cl)cc1F)N1CCC1` [Example 49, azetidin-1-yl[3-(4-chloro-2,5-difluorophenyl)pyrazolo[1,5-a]pyrimidin-2-yl]methanone] were 8.14, 7.20, 7.53 and 5.89.
With `N#Cc1ccc(-c2c(C(=O)N3CCC3)nn3cccnc23)cc1F` [Example 15, 4-[2-(azetidin-1-ylcarbonyl)pyrazolo[1,5-a]pyrimidin-3-yl]-2-fluorobenzonitrile], the pIC50 in test [1] is 6.96; in test [2] it was 7.29; in test [3], 7.28; in test [4], 5.18.
Turning to `COc1cc(-c2c(C(=O)NC3CC3)nn3cccnc23)ccn1` [Example 42, N-cyclopropyl-3-(2-methoxypyridin-4-yl)pyrazolo[1,5-a]pyrimidine-2-carboxamide], the pIC50 in test [1] is 6.67; in test [2], 6.32; in test [3], 5.92; in test [4], < 4.74.
Turning to `CCNC(=O)c1nn2cccnc2c1-c1cc(F)c(Cl)cc1C` [Example 17, 3-(4-chloro-5-fluoro-2-methylphenyl)-N-ethylpyrazolo[1,5-a]pyrimidine-2-carboxamide], the pIC50 in test [1] was 8.07; in test [2], 7.68; in test [3], 7.10; in test [4], 6.01.
`O=C(NC1CC1)c1nn2cccnc2c1-c1ccc2ncoc2c1` [Example 43, 3-(1,3-benzoxazol-6-yl)-N-cyclopropylpyrazolo[1,5-a]pyrimidine-2-carboxamide]: the pIC50 in test [1] was 6.84; in test [2], 6.66; in test [3] it was 6.75; in test [4] it was < 4.84.
For `CCNC(=O)c1nn2cccnc2c1-c1cc(F)c(C#N)cc1C` [Example 16, 3-(4-cyano-5-fluoro-2-methylphenyl)-N-ethylpyrazolo[1,5-a]pyrimidine-2-carboxamide], the pIC50 was 7.80 in test [1], 7.27 in test [2], 7.10 in test [3] and 5.60 in test [4].
Take `CCNC(=O)c1nn2cccnc2c1-c1ccc(Cl)c(F)c1` [Example 53, 3-(4-chloro-3-fluorophenyl)-N-ethylpyrazolo[1,5-a]pyrimidine-2-carboxamide]: the pIC50 in test [1] is 8.12; in test [2], 7.49; in test [3] it was 7.66; in test [4], 6.08.
The matching figures for `O=C(NC1CC1)c1nn2cccnc2c1-c1cc(F)c(Cl)c(F)c1` [Example 33, 3-(4-chloro-3,5-difluorophenyl)-N-cyclopropylpyrazolo[1,5-a]pyrimidine-2-carboxamide, hydrochloride salt]: 7.03, 8.48, 6.77 and 6.39.
`CNC(=O)c1nn2cccnc2c1-c1ccc(Cl)cc1` [Example 73, 3-(4-chlorophenyl)-N-methylpyrazolo[1,5-a]pyrimidine-2-carboxamide]: the pIC50 is 6.18 in test [1], 5.68 in test [2], 6.36 in test [3] and < 4.55 in test [4].
As to `N#Cc1ccc(-c2c(C(=O)N3CCC3)nn3cccnc23)c(F)c1` [Example 75, 4-[2-(azetidin-1-ylcarbonyl)pyrazolo[1,5-a]pyrimidin-3-yl]-3-fluorobenzonitrile], the pIC50 in test [1] was 6.13; in test [2] it was 6.42; in test [3] it was 6.53; in test [4] it was < 4.55.
Turning to `O=C(NC1(C(F)(F)F)CC1)c1nn2cccnc2c1-c1ccc(Cl)cc1` [Example 36, 3-(4-chlorophenyl)-N-[1-(trifluoromethyl)cyclopropyl]pyrazolo[1,5-a]pyrimidine-2-carboxamide, hydrochloride salt], the pIC50 was 7.17 in test [1], 6.34 in test [2], 6.34 in test [3] and < 4.60 in test [4].
For `Cc1cc(Cl)ccc1-c1c(C(=O)NC(C)C)nn2cccnc12` [Example 51, 3-(4-chloro-2-methylphenyl)-N-(propan-2-yl)pyrazolo[1,5-a]pyrimidine-2-carboxamide], the pIC50 was 6.84 in test [1], 6.31 in test [2], 6.50 in test [3] and < 4.78 in test [4].

Values taken from patent publication US10131669B2, “Pyrazolopyrimidine compounds” (Pfizer Inc., priority 2014, dated 2018).
